The experiment concerns BDF1 mice, P288 leukemia ip, survival T/C. The experiment can be described thus: NCI In Vivo Anticancer Drug Screen. Data for tumor model P288 Lymphocytic Leukemia (intraperitoneal) in B6D2F1 (BDF1) mice. The following applies: higher = longer survival. Here is the method: The antitumor activity of compounds was measured in mice bearing transplantable tumors. Survival or tumor size were measured and the results are expressed as the measurement made in the treated group (T) divided by the measurement made in the vehicle treated control group (C). The tumor model used in this assay is P288 Lymphocytic Leukemia (intraperitoneal) in B6D2F1 (BDF1) mice

[1] abbreviates: endpoint: survival time, mean or median, dose: 10.0 mg/kg/injection, schedule: Q01DX010 (ip), vehicle: saline.
The mark [2] stands for this setting: endpoint: survival time, mean or median, dose: 20.0 mg/kg/injection, schedule: Q01DX010 (ip), vehicle: saline.
The mark [3] stands for this setting: endpoint: survival time, mean or median, dose: 40.0 mg/kg/injection, schedule: Q01DX010 (ip), vehicle: saline.
Where [4] appears, read: endpoint: survival time, mean or median, dose: 80.0 mg/kg/injection, schedule: Q01DX010 (ip), vehicle: saline.
Setting [5] is: endpoint: survival time, mean or median, dose: 25.0 mg/kg/injection, schedule: Q01DX Z (ip), vehicle: carboxymethylcellulose (CMC).
Setting [6] is: endpoint: survival time, mean or median, dose: 5.0 mg/kg/injection, schedule: Q01DX010 (ip), vehicle: saline.

Values joined by “and” are separate entries in the source; they are usually repeats but may differ in a detail not shown here. Identical values can stand only once. Toxic doses and inconclusive results are not listed.

Take `CN(Cc1cnc2nc(N)nc(N)c2n1)c1ccc(C(=O)N[C@@H](CCC(=O)O)C(=O)O)cc1`: the T/C runs as follows: (endpoint: median survival time, dose: 0.38 mg/kg/injection, schedule: Q01DX009 (ip), vehicle: sodium bicarbonate) 183 % of control; (endpoint: median survival time, dose: 0.75 mg/kg/injection, schedule: Q01DX009 (ip), vehicle: sodium bicarbonate) 191 % of control; (endpoint: median survival time, dose: 1.5 mg/kg/injection, schedule: Q01DX009 (ip), vehicle: sodium bicarbonate) 220 % of control; (endpoint: median survival time, dose: 3.0 mg/kg/injection, schedule: Q01DX009 (ip), vehicle: sodium bicarbonate) 91 % of control; (endpoint: median survival time, dose: 6.0 mg/kg/injection, schedule: Q01DX009 (ip), vehicle: sodium bicarbonate) 154 % of control; (endpoint: survival time, mean or median, dose: 0.31 mg/kg/injection, schedule: Q01DX Z (ip), vehicle: other) 123 % of control. For the same compound, the T/C reads like this: (endpoint: survival time, mean or median, dose: 0.38 mg/kg/injection, schedule: Q01DX010 (ip), vehicle: other) 162 % of control and 167 % of control and 193 % of control; (endpoint: survival time, mean or median, dose: 0.62 mg/kg/injection, schedule: Q01DX Z (ip), vehicle: other) 189 % of control and 222 % of control; (endpoint: survival time, mean or median, dose: 0.75 mg/kg/injection, schedule: Q01DX010 (ip), vehicle: other) 176 % of control and 228 % of control and 235 % of control; (endpoint: survival time, mean or median, dose: 1.25 mg/kg/injection, schedule: Q01DX Z (ip), vehicle: other) 219 % of control and 256 % of control and 261 % of control; (endpoint: survival time, mean or median, dose: 1.5 mg/kg/injection, schedule: Q01DX010 (ip), vehicle: other) 229 % of control and 230 % of control (2×); (endpoint: survival time, mean or median, dose: 1.5 mg/kg/injection, schedule: Q01DX Z (ip), vehicle: other) 158 % of control. The T/C was 205 % of control and 244 % of control (endpoint: survival time, mean or median, dose: 2.5 mg/kg/injection, schedule: Q01DX Z (ip), vehicle: other); 186 % of control (endpoint: survival time, mean or median, dose: 3.0 mg/kg/injection, schedule: Q01DX010 (ip), vehicle: other); 116 % of control (endpoint: survival time, mean or median, dose: 5.0 mg/kg/injection, schedule: Q01DX Z (ip), vehicle: other).

For `OCC1OC(n2cnc3c(=S)nc[nH]c32)C(O)C1O` (configuration not stated), the T/C (endpoint: survival time, mean or median, dose: 16.0 mg/kg/injection, schedule: Q01DX Z (ip), vehicle: carboxymethylcellulose (CMC)) was 94 % of control; the T/C (endpoint: survival time, mean or median, dose: 31.0 mg/kg/injection, schedule: Q01DX Z (ip), vehicle: carboxymethylcellulose (CMC)) is 94 % of control; the T/C (endpoint: survival time, mean or median, dose: 62.5 mg/kg/injection, schedule: Q01DX Z (ip), vehicle: carboxymethylcellulose (CMC)) was 109 % of control; the T/C (endpoint: survival time, mean or median, dose: 125.0 mg/kg/injection, schedule: Q01DX Z (ip), vehicle: carboxymethylcellulose (CMC)) was 97 % of control; the T/C (endpoint: survival time, mean or median, dose: 250.0 mg/kg/injection, schedule: Q01DX Z (ip), vehicle: carboxymethylcellulose (CMC)) was 92 % of control.

As to `[N-]=[N+]=CC(=O)NCC(=O)NN`, the T/C (endpoint: survival time, mean or median, dose: 125.0 mg/kg/injection, schedule: Q01DX Z (ip), vehicle: other) was 96 % of control; the T/C (endpoint: survival time, mean or median, dose: 250.0 mg/kg/injection, schedule: Q01DX Z (ip), vehicle: other) was 98 % of control; the T/C (endpoint: survival time, mean or median, dose: 500.0 mg/kg/injection, schedule: Q01DX Z (ip), vehicle: other) was 92 % of control.

For the compound `CC[C@H](c1ccc(O)cc1)[C@@H](CC)c1ccc(O)cc1`, the T/C runs as follows: (endpoint: survival time, mean or median, dose: 8.0 mg/kg/injection, schedule: Q01DX Z (sc), vehicle: steriod suspending solution) 90 % of control; (endpoint: survival time, mean or median, dose: 16.0 mg/kg/injection, schedule: Q01DX Z (sc), vehicle: steriod suspending solution) 93 % of control; (endpoint: survival time, mean or median, dose: 31.0 mg/kg/injection, schedule: Q01DX Z (sc), vehicle: steriod suspending solution) 97 % of control; (endpoint: survival time, mean or median, dose: 62.5 mg/kg/injection, schedule: Q01DX Z (sc), vehicle: steriod suspending solution) 88 % of control and 98 % of control; (endpoint: survival time, mean or median, dose: 125.0 mg/kg/injection, schedule: Q01DX Z (sc), vehicle: steriod suspending solution) 90 % of control.

As for `Cn1c(N)nc2nc[nH]c2c1=S`, the T/C (endpoint: survival time, mean or median, dose: 3.1 mg/kg/injection, schedule: Q01DX Z (ip), vehicle: carboxymethylcellulose (CMC)) was 90 % of control; the T/C under setting [1] was 100 % of control; the T/C under setting [2] was 100 % of control; the T/C under setting [3] is 100 % of control; the T/C under setting [4] is 106 % of control.

With `Nc1ncnc2[nH]ncc12`, the T/C was 93 % of control and 100 % of control (endpoint: survival time, mean or median, dose: 1.5 mg/kg/injection, schedule: Q01DX010 (ip), vehicle: saline); 107 % of control and 100 % of control (endpoint: survival time, mean or median, dose: 3.0 mg/kg/injection, schedule: Q01DX010 (ip), vehicle: saline); 100 % of control (endpoint: survival time, mean or median, dose: 6.0 mg/kg/injection, schedule: Q01DX010 (ip), vehicle: saline); 92 % of control (endpoint: survival time, mean or median, dose: 6.25 mg/kg/injection, schedule: Q01DX Z (ip), vehicle: carboxymethylcellulose (CMC)); 112 % of control (endpoint: survival time, mean or median, dose: 12.0 mg/kg/injection, schedule: Q01DX010 (ip), vehicle: saline); 94 % of control (endpoint: survival time, mean or median, dose: 12.5 mg/kg/injection, schedule: Q01DX Z (ip), vehicle: carboxymethylcellulose (CMC)). Further, under setting [5], the T/C was 94 % of control.

As to `O=c1[nH]c(=O)n(C2CC(O)C(CO)O2)cc1F` (configuration not stated), the T/C was 106 % of control under setting [6]; 109 % of control and 100 % of control under setting [1]; 112 % of control and 100 % of control under setting [2]; 111 % of control under setting [5]; 113 % of control under setting [3]; 118 % of control under setting [4]. Besides, the T/C (endpoint: survival time, mean or median, dose: 100.0 mg/kg/injection, schedule: Q01DX Z (ip), vehicle: carboxymethylcellulose (CMC)) was 156 % of control and 163 % of control; the T/C (endpoint: survival time, mean or median, dose: 200.0 mg/kg/injection, schedule: Q01DX Z (ip), vehicle: carboxymethylcellulose (CMC)) is 111 % of control and 124 % of control; the T/C (endpoint: survival time, mean or median, dose: 400.0 mg/kg/injection, schedule: Q01DX Z (ip), vehicle: carboxymethylcellulose (CMC)) is 108 % of control; the T/C (endpoint: survival time, mean or median, dose: 800.0 mg/kg/injection, schedule: Q01DX Z (ip), vehicle: carboxymethylcellulose (CMC)) is 86 % of control.

`NC(Cc1ccc(N(CCCl)CCCl)cc1)C(=O)O` (configuration not stated): the T/C runs as follows: (endpoint: survival time, mean or median, dose: 0.31 mg/kg/injection, schedule: Q01DX Z (ip), vehicle: carboxymethylcellulose (CMC)) 90 % of control; (endpoint: survival time, mean or median, dose: 0.63 mg/kg/injection, schedule: Q01DX Z (ip), vehicle: carboxymethylcellulose (CMC)) 111 % of control; (endpoint: survival time, mean or median, dose: 1.25 mg/kg/injection, schedule: Q01DX010 (ip), vehicle: saline) 112 % of control; (endpoint: survival time, mean or median, dose: 1.25 mg/kg/injection, schedule: Q01DX Z (ip), vehicle: carboxymethylcellulose (CMC)) 110 % of control; (endpoint: survival time, mean or median, dose: 2.0 mg/kg/injection, schedule: Q01DX010 (ip), vehicle: saline) 172 % of control; (endpoint: survival time, mean or median, dose: 2.5 mg/kg/injection, schedule: Q01DX Z (ip), vehicle: carboxymethylcellulose (CMC)) 105 % of control. Besides, the T/C was 188 % of control (endpoint: survival time, mean or median, dose: 4.0 mg/kg/injection, schedule: Q01DX010 (ip), vehicle: saline); 150 % of control under setting [6]; 97 % of control (endpoint: survival time, mean or median, dose: 5.0 mg/kg/injection, schedule: Q01DX Z (ip), vehicle: carboxymethylcellulose (CMC)); 187 % of control under setting [1]; 97 % of control (endpoint: survival time, mean or median, dose: 10.0 mg/kg/injection, schedule: Q01DX Z (ip), vehicle: carboxymethylcellulose (CMC)); 88 % of control (endpoint: survival time, mean or median, dose: 16.0 mg/kg/injection, schedule: Q01DX010 (ip), vehicle: saline).

The values are drawn from PubChem BioAssay AID216 (DTP/NCI, 2004).
